In patent US8404287B2, “Use of Fructus schisandrae and extracts thereof in preventing and decreasing toxic and side effects of antineoplastic drugs” (priority 2005, dated 2013):
Read-outs that look alike come from different tables or passages of the source.

Key:
ICR mice [1] = conditions: antineoplastic agent ip once every two days x7 (Methotrexate 2, Cisplatin 2, 5-fluorouracil 30, Cytoxan 30, Vincristine 0.3 mg/kg), alone or within two hours after lignan 100 mg/kg ig
From the text: The mice were divided randomly as following, 6 mice per group.

ICR mice [2] = conditions: antineoplastic agent ip once every two days x7 (Methotrexate 2, Cisplatin 2, 5-fluorouracil 30, Cytoxan 30, Vincristine 0.3, Doxorubicin 4 mg/kg), alone or within 2 h after extract 400 mg/kg ig
From the text: The mice were grouped randomly as below, 6 mice per group.

[3] = test system: left ventricular myocardium matrix metalloproteinase (MMP-2); assay: Left ventricular myocardium MMP-2 activity, Schisandrin B (Example 7); type: in vivo, mouse
Experimental: The experimental method was carried out as those described in Example 2 (1.4).

[4] = test system: mice with myocardial damage induced by Doxorubicin; assay: Serum myocardium enzymes (CK, CK-MB, LDH, GOT) after Doxorubicin, Schisandrin B (Example 7)
Experimental: CK, CK-MB, LDH and GOT were determined by automatic biochemistry analyzer.
Control group: 24 mice were dosed intragastrically with normal saline at the 1st-3rd day of the experiment, once a day and each time with 20 ml/kg.
Group of Schisandrin B (SchB group): 24 mice were dosed intragastrically with SchB at the 1st-3rd day of the experiment, once a day and each time with 100 mg/kg.
Group of Doxorubicin: 42 mice were dosed intragastrically with normal saline at the 1st-3rd day of the experiment, once a day and each time with 20 ml/kg.
At the 5th day (48 hours after injection of Doxorubicin into abdominal cavity), blood were taken from 6 mice of each group. The serum was separated by regular separation. CK, CK-MB, LDH and GOT were determined by automatic biochemistry analyzer.

[5] = test system: mice with acute toxicity induced by Doxorubicin; assay: Survival rate of mice with acute toxicity induced by Doxorubicin, Schisandrin B (Example 7); type: in vivo, mouse
Experimental: Group of Doxorubicin: 42 mice were dosed intragastrically with normal saline at the 1st-3rd day of the experiment, once a day and each time with 20 ml/kg. At the 3rd day, the mice were injected into their abdominal cavities with Doxorubicin of 25 mg/kg.
At the 3rd day, the mice were injected into their abdominal cavities with 25 mg/kg of Doxorubicin 0.5 hours after drench.

ICR mice [6] = assay: Apparent condition of mice, ethanol extract and Doxorubicin (Example 2); type: in vivo, mouse; conditions: Doxorubicin alone or with extract ig 3 times
[7] = test system: mice with myocardial damage induced by Doxorubicin; assay: Serum myocardium enzymes (CK, CK-MB, LDH, GOT) after Doxorubicin, ethanol extract (Example 2); type: in vivo, mouse; conditions: Dox group: Doxorubicin 25 mg/kg ip at 3rd day; vs control group and X group (P<0.05); 48 h after injection
Experimental: Ethanol extract of Fructus schisandrae prepared from Example 1 was dissolved in 0.5% Poloxamer. CK (creatine kinase), CK-MB (creatine kinase isozyme), LDH (lactic dehydrogenase) and GOT (glutamic-oxalocetic transaminase) were detected by automatic biochemistry analyzer.
The serum was separated by regular separation and frozen at −80° C.

ICR mice [8] = conditions: Doxorubicin alone or in combination with dibenzocyclooctadiene lignans
Experimental: Doxorubicin Hydrochloride Injection was obtained from Italy pharmacia Co. Six Dibenzocyclooctadiene lignans were obtained from National Institute for the Verification of Pharmaceutical and Biological Products (Product No.: 110765-200407), which were dissolved in 0.5% Poloxamer. Female ICR mice with a body weight of 25-30 g were obtained from Shanghai Experimental Animal Center, which were grouped randomly into 4 groups, 10 mice per group.
Group of Doxorubicin (Dox group): 10 mice were injected into their abdominal cavities with 2 mg/kg of Doxorubicin once every two days, consecutively for 7 times.

[9] = test system: mice with acute toxicity induced by Doxorubicin; assay: Survival rate of mice with acute toxicity induced by Doxorubicin, ethanol extract (Example 2); type: in vivo, mouse
Experimental: Group of Doxorubicin (the Dox group): 42 mice were dosed intragastrically with normal saline in an amount of 20 ml/kg each time at the 1st-3rd day of the experiment, once a day. At the 3rd day, the mice were injected with Doxorubicin of 25 mg/kg into their abdominal cavities.
Group 1 of Doxorubicin plus the extract of Fructus schisandrae (group 1 of Dox +X): 24 mice were dosed intragastrically with the extract of Fructus schisandrae in an amount of 400 mg/kg each time at the 1st-3rd day of the experiment, once a day. At the 3rd day, the mice were injected with 25 mg/kg of Doxorubicin into their abdominal cavities 0.5 hours after drench.
Group 2 of Doxorubicin plus the extract of Fructus schisandrae (group 2 of Dox +X): 24 mice were dosed intragastrically with the extract of Fructus schisandrae in an amount of 200 mg/kg each time at the 1st-3rd day of the experiment, once a day. At the 3rd day, the mice were injected with 25 mg/kg of Doxorubicin into their abdominal cavities 0.5 hours after drench.

With `O=P1(N(CCCl)CCCl)NCCCO1` (stereo not shown) [Cytoxan] the Heart weight (ICR mice [1]) was 162.6 ± 31.4 mg, the Kidney weight (ICR mice [1]) was 396.3 ± 54.7 mg and the Liver weight (ICR mice [1]) was 1.88 ± 0.36 g. It also gave a Spleen weight (ICR mice [1]) of 113.5 ± 24.7 mg, a Thymus weight (ICR mice [1]) of 49.8 ± 12.4 mg and a Heart weight (ICR mice [2]) of 162.6 ± 31.4 mg. It also gave a Kidney weight (ICR mice [2]) of 396.3 ± 54.7 mg, a Liver weight (ICR mice [2]) of 1.88 ± 0.36 g and a Spleen weight (ICR mice [2]) of 113.5 ± 24.7 mg. For the same molecule, the Thymus weight (ICR mice [2]) was 49.8 ± 12.4 mg.

In the case of `COc1cc2c(c(OC)c1OC)-c1c(cc3c(c1OC)OCO3)CC(C)C(C)C2` (stereo not shown) [Schisandrin B], the “increase of mouse left ventricular myocardium MMP-2 activity induced by Doxorubicin” value ([3]; FIG. 14) is reported as “inhibit the increase”, the “left ventricular myocardium MMP-2 activity” value ([3]; Sch B group: 100 mg/kg ig days 1-3, no Doxorubicin) is reported as “No left ventricular myocardium matrix metalloproteinase (MMP-2) activity” and the “increase of mouse serum creatine kinase (CK) induced by Doxorubicin” value ([4]; FIG. 10) is reported as “inhibit the increase”. The “increase of mouse serum creatine kinase isozyme (CK-MB) induced by Doxorubicin” value ([4]; FIG. 11) was “inhibit the increase”, the “increase of mouse serum glutamic-oxalocetic transaminase (GOT) induced by Doxorubicin” value ([4]; FIG. 12) was “inhibit the increase” and the “increase of mouse serum lactic dehydrogenase (LDH) induced by Doxorubicin” value ([4]; FIG. 13) was “inhibit the increase”. The “death of mouse induced by Doxorubicin” value ([5]; FIG. 15) was “inhibit the death”.

For `COc1cccc2c1C(=O)c1c(O)c3c(c(O)c1C2=O)C[C@@](O)(C(=O)CO)C[C@@H]3O[C@H]1C[C@H](N)[C@H](O)[C@H](C)O1` [Doxorubicin], the “apparent condition of mice” value (ICR mice [6]) was “in bad conditions, manifested as asthenia, listlessness, hypotrichosis”, the “serum myocardium enzyme spectrum indexes (CK, CK-MB, LDH, GOT)” value [7] was “significantly higher” and the “apparent conditions of mice” value (ICR mice [8]) was “in bad conditions after 7-8 days, manifested as asthenia, listlessness and hypotrichosis”. The “survival rate on the 7th day” value ([9]; Dox group: Doxorubicin 25 mg/kg ip alone) was 3.7%, the “day on which death of mice occurred” value ([9]; Doxorubicin 25 mg/kg ip, alone or with extract 400 or 200 mg/kg ig days 1-3) was 5 days and the “4 serum enzyme indexes (CK, CK-MB, LDH, GOT)” value ([4]; Doxorubicin 25 mg/kg ip alone, vs control group and Sch B group (P<0.05), 48 h after injection) was “significantly higher”. For the same molecule, the “survival rate on the 7th day” value ([5]; Doxorubicin 25 mg/kg ip alone) was 0 and the “day on which death of mice occurred” value ([5]; Doxorubicin 25 mg/kg ip, alone or with Sch B 100, 50 or 25 mg/kg ig days 1-3) was 4 days.
